# Assay results from US20260014147A1, “STAT6 DEGRADERS” (Gilead Sciences, Inc., priority 2024, published 2026).
# Target: T1, STAT6 (endogenous, HiBiT-tagged) in HeLa LgBiT clone 4.14 cells (Homo sapiens, UniProt P42226)
# T1 construct: These cells express endogenous STAT6; host or cells: HeLa LgBiT clone 4.14
# T1 sequence (P42226 1-847): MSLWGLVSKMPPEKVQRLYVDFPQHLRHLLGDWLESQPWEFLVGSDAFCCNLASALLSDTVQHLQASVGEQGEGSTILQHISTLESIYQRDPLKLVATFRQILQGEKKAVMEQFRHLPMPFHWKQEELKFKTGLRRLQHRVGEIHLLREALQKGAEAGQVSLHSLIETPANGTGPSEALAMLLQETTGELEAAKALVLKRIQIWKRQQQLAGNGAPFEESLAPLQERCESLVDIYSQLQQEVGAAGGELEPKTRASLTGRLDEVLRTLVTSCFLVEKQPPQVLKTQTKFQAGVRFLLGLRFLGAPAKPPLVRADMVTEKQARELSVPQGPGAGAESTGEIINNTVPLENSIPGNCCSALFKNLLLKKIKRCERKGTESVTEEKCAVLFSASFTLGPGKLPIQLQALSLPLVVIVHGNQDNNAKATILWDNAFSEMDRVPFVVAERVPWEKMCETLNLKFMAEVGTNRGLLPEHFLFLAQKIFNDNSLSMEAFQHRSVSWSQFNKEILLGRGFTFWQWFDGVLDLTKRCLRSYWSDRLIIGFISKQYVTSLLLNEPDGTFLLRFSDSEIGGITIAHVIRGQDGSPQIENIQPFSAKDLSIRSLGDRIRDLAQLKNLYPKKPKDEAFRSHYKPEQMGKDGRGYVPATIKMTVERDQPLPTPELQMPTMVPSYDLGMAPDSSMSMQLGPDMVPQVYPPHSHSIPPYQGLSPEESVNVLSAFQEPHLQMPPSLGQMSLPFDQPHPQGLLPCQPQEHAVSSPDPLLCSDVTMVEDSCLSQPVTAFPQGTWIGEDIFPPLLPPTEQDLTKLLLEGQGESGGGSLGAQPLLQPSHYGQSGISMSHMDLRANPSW
# Experiment: STAT6 Degrader Assay (HiBiT based, HeLa LgBiT clone 4.14 cells, luminescence, DC50)
# Format: cell-based
# Settings: DC50 provided for test compounds with >80% Emax, geometric mean, read-out: STAT6 degradation DC50
# Description: This was a HiBit based assay. A HeLa cell line stably transfected with a small protein, LgBit (Large Bit) was obtained from Promega. These cells express endogenous STAT6. A small 11 amino acid gene sequence (HiBiT) was inserted in the STAT6 gene using CRISPR technology. Once STAT6 protein is expressed in the cells, the HiBiT sequence will bind the LgBit in the cells resulting in a functional NanoBiT protein, giving a luminescent tag to STAT6. Single cell clones were prepared and the clone 4.14 was selected for the assay based on that clone showing high luminescence, high STAT6 phosphorylation upon stimulation with IL-4, and inhibition of luminescence when cells were treated with STAT6 siRNA. HeLa LgBiT clone 4.14 cells were suspended in DMEM with 10% FCS, 1% Pen/Strep, Na-pyrovate and Hygromycin B, at a concentration of […]. 5000 cells were added pr well of a 384 well plate and 20 nL of compound was added by Echo® liquid handler. NN6394A (terfenadine, a toxic compound) was added to control wells at 50 µM concentration to establish the assay window. In these wells the cells are dead which equals 100% degradation of STAT6. After 4-24 h of incubation at 37° C. under 5% CO2/95% air, […] substrate (Nano-GLO®) was added to the wells and the plates were centrifuged and incubated for 0.5 h. The luminescence in the wells as a measure of non-degraded STAT6 was measured in a plate reader (BMG Pherastar FSX). The dose-response curves for Examples 2a2, 2t1, 2 h3, and 2r1 are shown below (where percent degradation is plotted vs. test compound concentration in M on a log-scale).
row,DC50 [nM],Compound
1,3.3,"CNc1ccc(-c2ccnc3c2cc([C@H](C)N2CCC(c4ccc(C(=O)N5CCn6nc(CN7CCC(c8ccc(NC9CCC(=O)NC9=O)cc8F)CC7)cc6C5)cc4)CC2)n3C)cn1 (mixture of isomers) [Example 2c41, 3-((3-fluoro-4-(1-((5-(4-(1-((S)-1-(1-methyl-4-(6-(methylamino)pyridin-3-yl)-1H-pyrrolo[2,3-b]pyridin-2-yl)ethyl)piperidin-4-yl)benzoyl)-4,5,6,7-tetrahydropyrazolo[1,5-a]pyrazin-2-yl)methyl)piperidin-4-yl)phenyl)amino)piperidine-2,6-dione]"
2,17.7,"CC(c1cc2c(-c3ccc(N)nc3)ccnc2n1C)N1CCC(c2ccc(C(=O)N3CCC(CN4CCN(c5ccc(N[C@@H]6CCC(=O)NC6=O)cc5F)CC4)CC3)cc2)CC1 (single isomer, unassigned) [Example 2c12]"
3,1.6,"CNc1ccc(-c2ccnc3c2cc([C@H](C)N2CCC(c4ccc(C(=O)N5CCn6nc(CN7CCC(c8ccc(N[C@@H]9CCC(=O)NC9=O)cc8F)CC7)cc6C5)cc4)CC2)n3C)cn1 (single isomer, unassigned) [Example 2c43]"
4,4.4,"COC(C)c1nc2cc(-c3ccnc4c3cc([C@H](C)N3CCC(c5ccc(C(=O)N6CCC(CN7CCN(c8ccc(NC9CCC(=O)NC9=O)cc8F)CC7)CC6)cc5)CC3)n4C)ccc2[nH]1 (stereo in doubt) [Example 2c21, 3-((3-fluoro-4-(4-((1-(4-(1-((S)-1-(4-(2-((R)-1-methoxyethyl)-1H-benzo[d]imidazol-5-yl)-1-methyl-1H-pyrrolo[2,3-b]pyridin-2-yl)ethyl)piperidin-4-yl)benzoyl)piperidin-4-yl)methyl)piperazin-1-yl)phenyl)amino)piperidine-2,6-dione]"
5,14.1,"CC(c1cc2c(-c3ccc(N)nc3)ccnc2n1C)N1CCC(c2ccc(C(=O)N3CCC(CN4CCN(c5ccc(NC6CCC(=O)NC6=O)cc5F)CC4)CC3)cc2)CC1 (centres unmarked) [Example 2c10, 3-((4-(4-((1-(4-(1-(1-(4-(6-aminopyridin-3-yl)-1-methyl-1H-pyrrolo[2,3-b]pyridin-2-yl)-ethyl)-piperidin-4-yl)benzoyl)piperidin-4-yl)methyl)piperazin-1-yl)-3-fluorophenyl)amino)piperidine-2,6-dione]"

# The next lines start with the molecule.
row,Compound,DC50 [nM]
1,"Cn1c(CN2CCC(c3ccc(C(=O)N4CCC(CN5CCN(c6ccc(NC7CCC(=O)NC7=O)cc6F)CC5)CC4)cc3)CC2)cc2c(-c3ccc4[nH]ncc4c3)ccnc21 (single isomer, unassigned) [Example 2c6]",22.5
2,"CC(c1cc2c(-c3ccc(N)nc3)ccnc2n1C)N1CCC(c2ccc(C(=O)N3CCC(CN4CCN(c5ccc(N[C@H]6CCC(=O)NC6=O)cc5F)CC4)CC3)cc2)CC1 (single isomer, unassigned) [Example 2c11]",11.2
3,"CNc1ccc(-c2ccnc3c2cc([C@H](C)N2CCC(c4ccc(C(=O)N5CCn6nc(CN7CCC(c8ccc(N[C@H]9CCC(=O)NC9=O)cc8F)CC7)cc6C5)cc4)CC2)n3C)cn1 (single isomer, unassigned) [Example 2c42]",5.4
4,"Cn1c(CN2CCC(c3ccc(C(=O)N4CCC(CN5CCN(c6ccc(NC7CCC(=O)NC7=O)cc6)CC5)CC4)cc3)CC2)cc2c(-c3ccc4[nH]ncc4c3)ccnc21 (centres unmarked) [Example 2b1, 3-((4-(4-((1-(4-(1-((4-(1H-indazol-5-yl)-1-methyl-1H-pyrrolo[2,3-b]pyridin-2-yl)methyl)piperidin-4-yl)benzoyl)piperidin-4-yl)methyl)piperazin-1-yl)phenyl)amino)piperidine-2,6-dione]",19.2

# Same assay, conditions: Emax provided for test compounds with <80% Emax (and 2c15), geometric mean, read-out: STAT6 degradation Emax
row,Emax [%],Compound
1,70 to 80,"COCc1nc2cc(-c3ccnc4c3cc(CN3CCC(c5ccc(C(=O)N6CCC(CN7CCN(c8ccc(NC9CCC(=O)NC9=O)c(F)c8)CC7)CC6)cc5)CC3)n4C)ccc2[nH]1 (centres unmarked) [Example 2b3, 3-((2-fluoro-4-(4-((1-(4-(1-((4-(2-(methoxymethyl)-1H-benzo[d]imidazol-5-yl)-1-methyl-1H-pyrrolo[2,3-b]pyridin-2-yl)methyl)piperidin-4-yl)benzoyl)piperidin-4-yl)methyl)piperazin-1-yl)phenyl)amino)piperidine-2,6-dione]"
2,50 to 60,"Cn1c(CN2CCC(c3ccc(C(=O)N4CCC(CN5CCN(c6ccc(NC7CCC(=O)NC7=O)cc6F)CC5)CC4)cc3)CC2)cc2c(-c3ccc(N)nc3)ccnc21 (centres unmarked) [Example 2c2, 3-((4-(4-((1-(4-(1-((4-(6-aminopyridin-3-yl)-1-methyl-1H-pyrrolo[2,3-b]pyridin-2-yl)methyl)-piperidin-4-yl)benzoyl)piperidin-4-yl)methyl)piperazin-1-yl)-3-fluorophenyl)amino)piperidine-2,6-dione]"
3,70 to 80,"COCc1nc2cc(-c3ccnc4c3cc(CN3CCC(c5ccc(C(=O)N6CCC(CN7CCN(c8ccc(NC9CCC(=O)NC9=O)cc8F)CC7)CC6)cc5)CC3)n4C)ccc2[nH]1 (centres unmarked) [Example 2c4, 3-((3-fluoro-4-(4-((1-(4-(1-((4-(2-(methoxymethyl)-1H-benzo[d]imidazol-5-yl)-1-methyl-1H-pyrrolo[2,3-b]pyridin-2-yl)methyl)piperidin-4-yl)benzoyl)piperidin-4-yl)methyl)piperazin-1-yl)phenyl)-amino)piperidine-2,6-dione]"
4,30 to 40,"Cc1nc(N)ccc1-c1ccnc2c1cc(CN1CCC(c3ccc(C(=O)N4CCC(CN5CCN(c6ccc(NC7CCC(=O)NC7=O)cc6F)CC5)CC4)cc3)CC1)n2C (centres unmarked) [Example 2c7, 3-((4-(4-((1-(4-(1-((4-(6-amino-2-methylpyridin-3-yl)-1-methyl-1H-pyrrolo[2,3-b]pyridin-2-yl)methyl)piperidin-4-yl)benzoyl)piperidin-4-yl)methyl)piperazin-1-yl)-3-fluorophenyl)amino)piperidine-2,6-dione]"

# The remaining lines, values behind:
row,Compound,Emax [%]
1,"Cn1c(CN2CCC(c3ccc(C(=O)N4CCC(CN5CCN(c6ccc(N[C@H]7CCC(=O)NC7=O)cc6F)CC5)CC4)cc3)CC2)cc2c(-c3ccc4[nH]ncc4c3)ccnc21 (single isomer, unassigned) [Example 2c5]",70 to 80
2,"Cn1c(CN2CCC(c3ccc(C(=O)N4CCC(CN5CCN(c6ccc(NC7CCC(=O)NC7=O)c(F)c6)CC5)CC4)cc3)CC2)cc2c(-c3ccc4[nH]ncc4c3)ccnc21 (centres unmarked) [Example 2b2, 3-((4-(4-((1-(4-(1-((4-(1H-indazol-5-yl)-1-methyl-1H-pyrrolo[2,3-b]pyridin-2-yl)methyl)piperidin-4-yl)benzoyl)piperidin-4-yl)methyl)piperazin-1-yl)-2-fluorophenyl)amino)piperidine-2,6-dione]",70 to 80
3,"Cc1cc(C(=O)N2CCC(CN3CCN(c4ccc(NC5CCC(=O)NC5=O)cc4F)CC3)CC2)ccc1C1=CCN(Cc2cc3c(-c4ccc(N)nc4)ccnc3n2C)CC1 (centres unmarked) [Example 2c9, 3-((4-(4-((1-(4-(1-((4-(6-aminopyridin-3-yl)-1-methyl-1H-pyrrolo[2,3-b]pyridin-2-yl)methyl)-1,2,3,6-tetrahydropyridin-4-yl)-3-methylbenzoyl)piperidin-4-yl)methyl)piperazin-1-yl)-3-fluorophenyl)-amino)piperidine-2,6-dione]",50 to 60
4,"C[C@H](c1cc2c(-c3ccc(N)nc3)ccnc2n1C)N1CCC(c2ccc(C(=O)N3CCC(CN4CCN(c5ccc(NC6CCC(=O)NC6=O)cc5F)CC4)CC3)cc2)CC1 (stereo partly drawn) [Example 2c13, 3-((4-(4-((1-(4-(1-((R)-1-(4-(6-aminopyridin-3-yl)-1-methyl-1H-pyrrolo[2,3-b]pyridin-2-yl)ethyl)-piperidin-4-yl)benzoyl)piperidin-4-yl)methyl)piperazin-1-yl)-3-fluorophenyl)amino)piperidine-2,6-dione]",< 20
